Source: PubChem BioAssay (NCI)
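Five concentrations, 48 hours, 96-well plates. Abbreviation: GI50, concentration required for 50% inhibition of growth. TGI marks complete inhibition of growth.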

Columns and labels:
Test in all cases: NCI-60 cell line screen, 48 h
HT29 colon = test system: HT29 colon
KM12 colon = test system: KM12 colon
786-0 renal = test system: 786-0 renal
TK-10 renal = test system: TK-10 renal
OVCAR-4 ovarian = test system: OVCAR-4 ovarian
HCT-116 colon = test system: HCT-116 colon
NCI/ADR-RES ovarian = test system: NCI/ADR-RES ovarian
HCT-15 colon = test system: HCT-15 colon
SF-268 CNS = test system: SF-268 CNS
CAKI-1 renal = test system: CAKI-1 renal

| Compound | GI50 (HT29 colon) [µM] | TGI (HT29 colon) [µM] | GI50 (KM12 colon) [µM] | TGI (KM12 colon) [µM] | GI50 (786-0 renal) [µM] | TGI (786-0 renal) [µM] | GI50 (TK-10 renal) [µM] | TGI (TK-10 renal) [µM] | GI50 (OVCAR-4 ovarian) [µM] | TGI (OVCAR-4 ovarian) [µM] | GI50 (HCT-116 colon) [µM] | TGI (HCT-116 colon) [µM] | GI50 (NCI/ADR-RES ovarian) [µM] | TGI (NCI/ADR-RES ovarian) [µM] | GI50 (HCT-15 colon) [µM] | TGI (HCT-15 colon) [µM] | GI50 (SF-268 CNS) [µM] | TGI (SF-268 CNS) [µM] | TGI (CAKI-1 renal) [µM] | GI50 (CAKI-1 renal) [µM] |
| --- | --- | --- | --- | --- | --- | --- | --- | --- | --- | --- | --- | --- | --- | --- | --- | --- | --- | --- | --- | --- |
| C=CCN1C(=O)[C@]2(SC1=S)[C@H](c1cccc(Cl)c1)CN(C)[C@]21C(=O)NC2C=CC(Cl)=C[C@H]21 (stereo partly drawn) | 1.67 | 3.85 | 1.99 | 6.35 | 1.51 | 3.48 | 13 | 26.9 | 2.13 | 10.2 | 2.88 | 13.9 | 4.18 | 21.2 | 2.89 | 13.1 | 6.77 | 24.6 |  |  |
| CC(=O)/C=C/c1ccc(N(CCO)Cc2ccc(C(C)(C)C)cc2)cc1 | 27.7 | 103 | 39.6 | 155 | 51.3 | 184 | 112 | 237 | 43.6 | 175 | 30 | 125 | 39.1 | 174 | 27.8 | 124 | 59 | 200 |  |  |
| COc1ccc(/C=C/c2nc(=S)[nH][nH]2)cc1OC |  | > 100 |  |  |  | > 100 |  | > 100 |  | > 100 |  | > 100 |  |  |  | > 100 |  | > 100 | > 100 |  |
| Nc1cc(N)c2nc(-c3ccccc3)c(NCc3ccc(Cl)c(Cl)c3)nc2c1 |  |  | 3.42 | 21.3 | 13.1 | 30.4 | 12.8 | 30.5 | 11.7 | > 100 | 11.5 | 24.1 | 17.4 | 45.6 | 4.64 | > 100 | 19.8 | 55.2 | 52.7 | 13.2 |
| O=C1C2C3C=C4c5ccccc5N(c5ccccc5)C4([C@@H]2C(=O)N1c1ccc(F)cc1)[C@H]1C(=O)N(c2ccc(F)cc2)C(=O)[C@@H]31 (stereo partly drawn) |  |  |  | > 100 |  | > 100 |  | > 100 |  |  |  |  |  |  |  | > 100 |  | > 100 |  |  |
| O=C1c2ccccc2C(=O)c2sc(Nc3ccc([N+](=O)[O-])cc3)nc21 |  | 57.7 |  | 25.8 |  | 12.3 |  | 26.4 |  | 11 |  | 15.2 |  |  |  | 18.9 |  | 12.2 | 12 |  |
| CCOC(=O)c1ccc(NC(=O)c2cccc(NC3=C(Cl)C(=O)N(Cc4ccccc4)C3=O)c2)cc1 | > 100 | > 100 | > 100 | > 100 | > 100 | > 100 | > 100 | > 100 | > 100 | > 100 | > 100 | > 100 |  |  | > 100 | > 100 | 42.3 | > 100 | > 100 | > 100 |
| CNC(=O)NCCN1N=C(C)/C(=C\c2ccccc2)CC1=O |  | > 100 |  | > 100 |  | > 100 |  | > 100 |  | > 100 |  | > 100 |  |  |  |  |  | > 100 | > 100 |  |
| Cn1cc(-c2nc(-c3cn(C)c4ncccc34)cs2)c2ccccc21 |  |  | 0.61 | > 100 | 2.68 | 13.7 | 2.4 | 11.6 |  |  | 0.802 | 18.4 | 0.62 | > 100 | 1.49 | > 100 | 4.83 | 37.3 | > 100 | 0.972 |
| N#CC(C#N)=C1CCC2C(=C(C#N)C#N)CCC12 (stereo not drawn) |  | > 100 |  | > 100 |  | > 100 |  | > 100 |  | > 100 |  | > 100 |  |  |  | > 100 |  | > 100 | > 100 |  |
| N#CC1=C(c2ccccc2)OC2(N)OC(c3ccccc3)=C(C#N)C12C#N (stereo not drawn) |  | > 100 |  | > 100 |  | > 100 |  | > 100 |  | > 100 |  |  |  |  |  | > 100 |  | > 100 | > 100 |  |
| C=C1C(=O)O[C@H]2[C@H]1CC/C(COC(=O)N[C@H](Cc1c[nH]c3ccccc13)C(=O)OC)=C\CC[C@@]1(C)O[C@@H]21 | 2.46 | 7.92 | 11.8 | 28.6 | 1.28 | 2.95 | 2.1 | 5.07 | 6.44 | 20.4 | 1.16 | 2.59 | 10.6 | 37.9 | 1.53 | 3.43 | 5.17 | 19.8 |  |  |
| CC(=O)[CH-]C(=O)c1ccccc1.CC(=O)[CH-]C(=O)c1ccccc1.CC(=O)[CH-]C(=O)c1ccccc1.[Br-].[Zr+4] | 48.3 | > 100 | > 100 | > 100 | 67.1 | > 100 | > 100 | > 100 | 82.1 | > 100 |  |  |  |  | 89.7 | > 100 | 56.7 | > 100 | > 100 | 37.2 |
| O=C(O)CCSC(=O)Nc1ccccc1 |  | > 100 |  | > 100 |  | > 100 |  | > 100 |  | > 100 |  | > 100 |  |  |  | > 100 |  | > 100 | > 100 |  |
| O=C1CCc2ccc(O)c(c2)Oc2ccc(cc2)[C@@H]2O[C@@H]2CO1 |  | > 100 |  | > 100 |  | > 100 |  | > 100 |  | > 100 |  | > 100 |  |  |  |  |  |  | > 100 |  |
| CN(C)CCNC(=O)c1cccc2c1nc(-c1ccncc1)c1ccccc12 |  | 19.4 |  | 25.6 |  | 17.8 |  | 7.77 |  | 15.6 |  | 9.23 |  |  |  | 13.4 |  | 19.7 | 24.5 |  |
| CC(=N/NC(N)=S)/C(C)=N/NC(N)=S |  | > 100 |  | > 100 |  | > 100 |  | > 100 |  |  |  | > 100 |  | > 100 |  | > 100 |  | > 100 |  |  |
| C/C=C1/C(=Cc2[nH]c(C=c3[nH]/c(=C/C4=NC(=O)C(CC)=C4C)c(C)c3CCC(=O)O)c(CCC(=O)O)c2C)NC(=O)C1C (stereo not drawn) |  | 49 |  | > 50 |  | > 50 |  | > 50 |  | > 50 |  | > 50 |  |  |  | > 50 |  | > 50 | > 50 |  |
| CCOC(=O)CCn1cnc(N)n1 |  | > 100 |  | > 100 |  | > 100 |  | > 100 |  | > 100 |  | > 100 |  |  |  | > 100 |  |  | > 100 |  |
| O=C(NCc1ccccc1)C1C(=O)C(=O)N(Cc2ccccc2)C1=O (stereo not drawn) |  | > 100 |  | > 100 |  | > 100 |  | > 100 |  | > 100 |  | > 100 |  |  |  | > 100 |  | > 100 | > 100 |  |
